Data from paper PMC6944758 (The FEBS journal, 2019).

Tests used:
ALDH7A1 [1] = target: T1, ALDH7A1 (Homo sapiens, UniProt P49419); test: X-ray crystal structure, co-crystallization; format: binding; details: 15 mM NAD+, pH 6.8, 1.85 Å; Rossmann fold cofactor site
T1 sequence (P49419 1-511 isoform P49419-2): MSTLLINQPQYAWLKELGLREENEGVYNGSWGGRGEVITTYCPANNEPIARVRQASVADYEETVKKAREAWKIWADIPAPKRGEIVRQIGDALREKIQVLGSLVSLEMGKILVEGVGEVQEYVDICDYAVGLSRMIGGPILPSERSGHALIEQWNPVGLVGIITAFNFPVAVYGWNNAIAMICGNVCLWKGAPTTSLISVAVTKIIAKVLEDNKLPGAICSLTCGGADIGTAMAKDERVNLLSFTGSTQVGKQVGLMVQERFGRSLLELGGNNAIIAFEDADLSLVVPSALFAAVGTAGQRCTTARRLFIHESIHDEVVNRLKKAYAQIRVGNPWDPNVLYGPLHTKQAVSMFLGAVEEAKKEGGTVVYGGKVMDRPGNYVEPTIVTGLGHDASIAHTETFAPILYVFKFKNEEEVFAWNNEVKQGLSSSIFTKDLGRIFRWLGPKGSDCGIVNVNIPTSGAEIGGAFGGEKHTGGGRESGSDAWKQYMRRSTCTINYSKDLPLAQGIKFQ

ALDH7A1 [2] = target: T1, ALDH7A1; test: X-ray crystal structure, co-crystallization; format: binding; details: 175 mM PA, pH 7.2, 1.88 Å; aldehyde substrate site

Row | SMILES | X-ray crystal structure, co-crystallization (ALDH7A1 [1]) | X-ray crystal structure, co-crystallization (ALDH7A1 [2])
1 | NC(=O)c1ccc[n+]([C@@H]2O[C@H](COP(=O)(O)OP(=O)(O)OC[C@H]3O[C@@H](n4cnc5c(N)ncnc54)[C@H](O)[C@@H]3O)[C@@H](O)[C@H]2O)c1 [NAD^+] | The structures of W175G and W175A complexed with NAD^+ were determined | 
2 | O=C(O)[C@@H]1CCCCN1 [PA, L-pipecolic acid] |  | we obtained a structure of W175A complexed with the P6C analog L-pipecolic acid (PA)
